US20250230193A1, “CYCLIC COMPOUND HAVING SELECTIVE KRAS INHIBITORY EFFECT ON HRAS AND NRAS” (CHUGAI SEIYAKU KABUSHIKI KAISHA, priority 2022, published 2025)

How the values were obtained:
[1] = molecular target: GDP-bound HRAS wild-type protein (Homo sapiens, UniProt P01112); assay: Binding to HRAS by surface plasmon resonance (SPR), Single Cycle Kinetics; conditions: SPR; KD ratio class
[2] = test system: human lung cancer strain NCI-H441; assay: cells; conditions: NCI-H441, 96 h, read-out: NCI-H441 IC50 (nM)
[3] = molecular target: GDP-bound NRAS wild-type protein (Homo sapiens, UniProt P01111); assay: Binding to NRAS by surface plasmon resonance (SPR), Single Cycle Kinetics; conditions: SPR; KD ratio class
Chain of GDP-bound NRAS wild-type protein (P01111 whole entry): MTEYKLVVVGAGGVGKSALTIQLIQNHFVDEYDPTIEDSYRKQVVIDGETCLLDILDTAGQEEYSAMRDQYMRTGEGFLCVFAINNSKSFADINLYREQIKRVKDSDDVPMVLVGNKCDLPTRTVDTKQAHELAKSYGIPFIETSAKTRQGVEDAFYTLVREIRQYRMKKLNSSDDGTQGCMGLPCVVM

Chain of GDP-bound HRAS wild-type protein (P01112 whole entry): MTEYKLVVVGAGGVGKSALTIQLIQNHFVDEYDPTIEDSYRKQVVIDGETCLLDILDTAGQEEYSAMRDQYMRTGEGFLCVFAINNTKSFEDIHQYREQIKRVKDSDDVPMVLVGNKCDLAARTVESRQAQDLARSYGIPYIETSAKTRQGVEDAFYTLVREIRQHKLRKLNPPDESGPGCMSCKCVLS

Compound	HRAS/KRAS (ratio of KD value for GDP-bound HRAS wild-type protein to KD value for KRAS) [1]	IC50 [2] [nM]	NRAS/KRAS (ratio of KD value for GDP-bound NRAS wild-type protein to KD value for KRAS) [3]
CC[C@H](C)[C@@H]1NC(=O)[C@H](CC2CC2)N(C)C(=O)C[C@@H](C(=O)N2CCOCC2)N(C)C(=O)[C@H](C2CCCC2)N(C)C(=O)C2(CCC2)NC(=O)[C@@H]2CCCN2C(=O)[C@H](CCc2ccc(C(F)(F)F)c(Cl)c2)NC(=O)CN(C)C(=O)[C@H](Cc2ccc(C(F)(F)F)cc2)N2C[C@H](C)CC[C@@H](C2=O)N(C)C(=O)[C@@H]2CCN2C1=O [PP1341]	B (a compound having 3 or more and less than 10 is denoted as B)	46.3	A (a compound having 10 or more and less than 20 is denoted as A)
CC[C@H](C)[C@@H]1NC(=O)[C@H](CC2CCC2)N(C)C(=O)C[C@@H](C(=O)N(C)C)N(C)C(=O)[C@H](C2CCCC2)N(C)C(=O)C2(CCCC2)NC(=O)[C@@H]2CCCN2C(=O)[C@H](CCc2ccc(C(F)(F)F)c(Cl)c2)NC(=O)CN(C)C(=O)[C@H](Cc2ccc(C(F)(F)F)cc2)N2C[C@H](C)CC[C@@H](C2=O)N(C)C(=O)CN(C)C1=O [PP1342]	B (a compound having 3 or more and less than 10 is denoted as B)	5	B (a compound having 3 or more and less than 10 is denoted as B)
CC[C@H](C)[C@@H]1NC(=O)[C@H](CC2CC2)N(C)C(=O)C[C@@H](C(=O)N2CCOCC2)N(C)C(=O)[C@H](C2CCCC2)N(C)C(=O)C2(CCCC2)NC(=O)[C@@H]2CCCN2C(=O)[C@H](CCc2ccc(C(F)(F)F)c(Cl)c2)NC(=O)CN(C)C(=O)[C@H](Cc2ccc(C(F)(F)F)cc2)N2C[C@H](C)CC[C@@H](C2=O)N(C)C(=O)CN(C)C1=O [PP1343]	B (a compound having 3 or more and less than 10 is denoted as B)	19.3	A (a compound having 10 or more and less than 20 is denoted as A)
CC[C@H](C)[C@@H]1NC(=O)[C@H](CC2CC2)N(C)C(=O)C[C@@H](C(=O)N2CCOCC2)N(C)C(=O)[C@H](C2CCCC2)N(C)C(=O)C2(CCC2)NC(=O)[C@@H]2CCCN2C(=O)[C@H](CCc2ccc(C(F)(F)F)c(Cl)c2)NC(=O)CN(C)C(=O)[C@H](Cc2ccc(C(F)(F)F)cc2)N2C[C@H](C)CC[C@@H](C2=O)N(C)C(=O)CN(C)C1=O [PP1344]	B (a compound having 3 or more and less than 10 is denoted as B)	16.7	B (a compound having 3 or more and less than 10 is denoted as B)
CC[C@H](C)[C@@H]1NC(=O)[C@H](CC2CCC2)N(C)C(=O)C[C@@H](C(=O)N2CCOCC2)N(C)C(=O)[C@H](C2CCCC2)N(C)C(=O)C2(CCC2)NC(=O)[C@@H]2CCCN2C(=O)[C@H](CCc2ccc(C(F)(F)F)c(Cl)c2)NC(=O)CN(C)C(=O)[C@H](Cc2ccc(C(F)(F)F)cc2)N2C[C@H](C)CC[C@@H](C2=O)N(C)C(=O)[C@@H]2CCN2C1=O [PP1345]	B (a compound having 3 or more and less than 10 is denoted as B)	34.8	A (a compound having 10 or more and less than 20 is denoted as A)
CC[C@H](C)[C@@H]1NC(=O)[C@H](CC2CC2)N(C)C(=O)C[C@@H](C(=O)N(C)C)N(C)C(=O)[C@H](C2CCCC2)N(C)C(=O)C2(CCCC2)NC(=O)[C@@H]2CCCN2C(=O)[C@H](CCc2ccc(C(F)(F)F)c(Cl)c2)NC(=O)CN(C)C(=O)[C@H](Cc2ccc(C(F)(F)F)cc2)N2C[C@H](C)CC[C@@H](C2=O)N(C)C(=O)CN(C)C1=O [PP1346]	B (a compound having 3 or more and less than 10 is denoted as B)	7.2	B (a compound having 3 or more and less than 10 is denoted as B)
